# Like-named read-outs stand apart in the source and are kept apart here.
# Tests used:
# PC-3 = assay: In vitro cytotoxicity, MTT assay, PC-3; assay type: cell-based; conditions: PC-3 cells, 72 h, average of two separate determinations
# HepG-2 = assay: In vitro cytotoxicity, MTT assay, HepG-2; assay type: cell-based; conditions: 72 h, average of two separate determinations
# A549 = assay: In vitro cytotoxicity, MTT assay, A549; assay type: cell-based; conditions: A549 cells, 72 h, average of two separate determinations
# MCF-7 = assay: In vitro cytotoxicity, MTT assay, MCF-7; assay type: cell-based; conditions: MCF-7 cells
# mTOR = mTOR (Homo sapiens, UniProt P42345); assay: mTOR kinase assay (Kinase-Glo Luminescent Kinase Assay); assay type: biochemical; conditions: 10 µM ATP, 60 min, average of two determinations
# PI3Kα = PI3Kα (Homo sapiens, UniProt P42336); assay: PI3Kα kinase assay (Kinase-Glo Luminescent Kinase Assay); assay type: biochemical; conditions: 1 µM ATP, 60 min, average of two determinations
# Sequence of PI3Kα (P42336 whole entry): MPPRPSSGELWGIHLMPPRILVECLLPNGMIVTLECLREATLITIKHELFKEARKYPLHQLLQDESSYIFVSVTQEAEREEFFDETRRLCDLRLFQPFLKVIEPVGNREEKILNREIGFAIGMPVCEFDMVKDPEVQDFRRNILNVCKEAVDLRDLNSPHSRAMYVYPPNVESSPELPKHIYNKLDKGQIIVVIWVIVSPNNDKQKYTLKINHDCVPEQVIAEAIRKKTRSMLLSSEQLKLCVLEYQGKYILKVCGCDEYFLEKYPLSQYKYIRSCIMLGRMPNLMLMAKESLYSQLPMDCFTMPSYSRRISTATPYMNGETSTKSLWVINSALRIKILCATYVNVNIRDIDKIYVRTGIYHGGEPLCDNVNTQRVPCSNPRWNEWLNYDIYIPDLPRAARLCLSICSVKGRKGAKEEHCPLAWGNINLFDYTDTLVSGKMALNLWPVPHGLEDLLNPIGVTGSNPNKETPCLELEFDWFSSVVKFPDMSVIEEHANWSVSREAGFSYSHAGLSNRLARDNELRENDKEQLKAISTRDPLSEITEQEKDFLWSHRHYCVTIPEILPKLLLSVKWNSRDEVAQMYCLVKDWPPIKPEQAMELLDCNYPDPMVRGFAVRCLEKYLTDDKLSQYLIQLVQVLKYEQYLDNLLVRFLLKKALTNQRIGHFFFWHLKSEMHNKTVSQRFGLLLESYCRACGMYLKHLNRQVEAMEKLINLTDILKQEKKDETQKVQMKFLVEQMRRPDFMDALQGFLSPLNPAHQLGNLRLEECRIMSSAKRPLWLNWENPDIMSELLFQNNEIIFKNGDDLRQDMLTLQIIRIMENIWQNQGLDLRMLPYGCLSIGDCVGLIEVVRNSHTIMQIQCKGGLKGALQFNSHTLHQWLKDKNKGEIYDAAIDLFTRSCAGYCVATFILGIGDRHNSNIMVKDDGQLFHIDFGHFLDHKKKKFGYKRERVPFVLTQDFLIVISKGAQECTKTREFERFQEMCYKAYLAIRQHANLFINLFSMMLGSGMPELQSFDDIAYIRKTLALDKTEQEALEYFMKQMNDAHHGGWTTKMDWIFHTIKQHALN
# Sequence of PI3Kα (P27986 whole entry partner): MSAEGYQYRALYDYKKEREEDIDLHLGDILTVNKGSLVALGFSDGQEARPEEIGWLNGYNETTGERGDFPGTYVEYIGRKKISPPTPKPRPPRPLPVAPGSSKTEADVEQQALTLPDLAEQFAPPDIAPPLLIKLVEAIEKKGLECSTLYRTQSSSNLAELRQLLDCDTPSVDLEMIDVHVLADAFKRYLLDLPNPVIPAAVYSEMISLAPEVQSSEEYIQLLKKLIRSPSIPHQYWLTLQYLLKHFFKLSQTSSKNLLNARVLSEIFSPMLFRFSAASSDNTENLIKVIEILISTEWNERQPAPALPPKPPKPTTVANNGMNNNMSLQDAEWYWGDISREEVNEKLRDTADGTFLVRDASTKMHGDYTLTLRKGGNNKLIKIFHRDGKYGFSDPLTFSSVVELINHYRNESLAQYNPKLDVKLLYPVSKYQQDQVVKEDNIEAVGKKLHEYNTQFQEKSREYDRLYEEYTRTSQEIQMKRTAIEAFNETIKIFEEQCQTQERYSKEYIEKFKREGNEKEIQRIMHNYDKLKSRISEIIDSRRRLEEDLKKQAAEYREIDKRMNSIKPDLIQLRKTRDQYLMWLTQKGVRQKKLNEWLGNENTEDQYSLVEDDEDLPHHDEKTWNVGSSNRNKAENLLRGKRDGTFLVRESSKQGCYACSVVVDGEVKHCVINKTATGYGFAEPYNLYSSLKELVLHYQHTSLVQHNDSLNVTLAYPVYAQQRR
# [1] = Homo sapiens, HepG2, HepG-2 cells
# [2] = Homo sapiens, MCF7, MTT, 72 h, average of two separate determinations, read-out: IC50 (µM) MCF-7
melting point [°C],IC50 (mTOR) [µM],IC50 (PI3Kα) [µM],Structure (SMILES),IC50 (PC-3; Homo sapiens) [µM],IC50 (HepG-2; [1]) [µM],IC50 (A549; Homo sapiens) [µM],IC50 (MCF-7; [2]) [µM],IC50 (PC-3) [µM],IC50 (HepG-2; HepG-2 cells) [µM],IC50 (A549) [µM],"IC50 (MCF-7; MTT, 72 h, average of two separate determinations, read-out: IC50 (µM) MCF-7) [µM]","IC50 (MCF-7; read-out: IC50 value against MCF-7 cell (conclusions text, unit inferred)) [µM]"
263.3 to 264.2,–,–,"COc1ccc(Nc2c(NC(=O)NS(=O)(=O)c3ccc(C(C)(C)C)cc3)cnc3ccc(Br)cc23)cc1 [20d, N-((6-Bromo-4-((4-methoxyphenyl)amino)quinolin-3-yl)carbamoyl)-4-(tert-butyl)benzenesulfonamide]",> 100,33.2 ± 1.26,32.1 ± 1.18,10.5 ± 0.98,–,–,–,–,–
282.3 to 283.7,–,–,"O=C(Nc1cnc2ccc(Br)cc2c1Nc1ccc(F)c(Cl)c1)NS(=O)(=O)c1ccc(Cl)cc1 [22b, N-((6-Bromo-4-((3-chloro-4-fluorophenyl)amino)quinolin-3-yl)carbamoyl)-4-chlorobenzenesulfonamide]",17.7 ± 0.95,6.44 ± 0.89,> 100,6.84 ± 0.83,–,–,–,–,–
295.1 to 296.3,–,–,"O=C(Nc1cnc2ccc(Br)cc2c1Nc1ccc(F)c(Cl)c1)NS(=O)(=O)c1ccc(F)cc1 [22a, N-((6-Bromo-4-((3-chloro-4-fluorophenyl)amino)quinolin-3-yl)carbamoyl)-4-fluorobenzenesulfonamide]",52.5 ± 1.03,19.63 ± 0.18,12 ± 0.91,22.8 ± 1.35,–,–,–,–,–
289.2 to 290.4,–,–,"Cc1ccc(S(=O)(=O)NC(=O)Nc2cnc3ccc(Br)cc3c2Nc2ccc(C(C)(C)C#N)cc2)cc1 [19c, N-((6-Bromo-4-((4-(2-cyanopropan-2-yl)phenyl)amino)quinolin-3-yl)carbamoyl)-4-methylbenzenesulfonamide]",40.6 ± 1.11,31.2 ± 1.5,29 ± 1.31,3.96 ± 0.59,–,–,–,–,–
–,–,–,"Cn1c(=O)n(-c2ccc(C(C)(C)C#N)cc2)c2c3cc(-c4cnc5ccccc5c4)ccc3ncc21 [NVP-BEZ235, reference compound]",0.2 ± 0.11,0.54 ± 0.83,0.36 ± 0.86,0.14 ± 0.1,–,–,–,–,–
259.4 to 260.3,–,–,"CC(C)(C)c1ccc(S(=O)(=O)NC(=O)Nc2cnc3ccc(Br)cc3c2Nc2ccc(Br)cc2)cc1 [21d, N-((6-Bromo-4-((4-bromophenyl)amino)quinolin-3-yl)carbamoyl)-4-(tert-butyl)benzenesulfonamide]",> 100,17 ± 1.22,16.2 ± 1.2,52.7 ± 1.72,–,–,–,–,–
279.6 to 280.2,–,–,"Cc1ccc(S(=O)(=O)NC(=O)Nc2cnc3ccc(Br)cc3c2Nc2ccc(Br)cc2)cc1 [21c, N-((6-Bromo-4-((4-bromophenyl)amino)quinolin-3-yl)carbamoyl)-4-methylbenzenesulfonamide]",> 100,31.1 ± 1.49,22.7 ± 1.35,16.6 ± 1.22,–,–,–,–,–
278.7 to 279.5,–,–,"O=C(Nc1cnc2ccc(Br)cc2c1Nc1ccc(Br)cc1)NS(=O)(=O)c1ccc(F)cc1 [21a, N-((6-Bromo-4-((4-bromophenyl)amino)quinolin-3-yl)carbamoyl)-4-fluorobenzenesulfonamide]",> 100,45.7 ± 1.66,59 ± 1.76,37.6 ± 1.57,–,–,–,–,–
290.1 to 291.6,–,–,"CC(C)(C)c1ccc(S(=O)(=O)NC(=O)Nc2cnc3ccc(Br)cc3c2Nc2ccc(F)c(Cl)c2)cc1 [22d, N-((6-Bromo-4-((3-chloro-4-fluorophenyl)amino)quinolin-3-yl)carbamoyl)-4-(tert-butyl)benzenesulfonamide]",29.3 ± 2.23,28.4 ± 0.89,22.4 ± 1.21,46.3 ± 1.67,–,–,–,–,–
–,2.62,0.72,"CC(C)(C#N)c1ccc(Nc2c(NC(=O)NS(=O)(=O)c3ccc(F)cc3)cnc3ccc(Br)cc23)cc1 [19a, N-((6-Bromo-4-((4-(2-cyanopropan-2-yl)phenyl)amino)quinolin-3-yl)carbamoyl)-4-fluorobenzenesulfonamide carboxamide]",–,–,–,–,66.6 ± 1.28,33.3 ± 1.52,38.5 ± 1.04,3.88 ± 0.58,2.88 ± 0.58
356.1 to 357.3,–,–,"COc1ccc2nc(C)c(NC(=O)NS(=O)(=O)c3ccc(F)cc3)c(Nc3ccc(Br)cc3)c2c1 [23c, N-((4-((4-Bromophenyl)amino)-6-methoxy-2-methylquinolin-3-yl)carbamoyl)-4-fluorobenzenesulfonamide]",39.8 ± 1.25,32.1 ± 1.12,13 ± 0.84,25.4 ± 1.43,–,–,–,–,–
289.1 to 290.2,–,–,"COc1ccc(Nc2c(NC(=O)NS(=O)(=O)c3ccc(F)cc3)cnc3ccc(Br)cc23)cc1 [20a, N-((6-Bromo-4-((4-methoxyphenyl)amino)quinolin-3-yl)carbamoyl)-4-fluorobenzenesulfonamide]",> 100,20.3 ± 1.04,26.3 ± 1.13,7.65 ± 0.88,–,–,–,–,–
290.8 to 291.2,–,–,"COc1ccc(Nc2c(NC(=O)NS(=O)(=O)c3ccc(Cl)cc3)c(C)nc3ccc(OC)cc23)cc1 [23a, 4-Chloro-N-((6-methoxy-4-((4-methoxyphenyl)amino)-2-methylquinolin-3-yl)carbamoyl)benzenesulfonamide]",> 100,16 ± 1.1,39.8 ± 1.59,6.3 ± 0.79,–,–,–,–,–
291.2 to 292.7,> 10,> 10,"COc1ccc(Nc2c(NC(=O)NS(=O)(=O)c3ccc(C(C)(C)C)cc3)c(C)nc3ccc(OC)cc23)cc1 [23b, 4-(tert-Butyl)-N-((6-methoxy-4-((4-methoxyphenyl)amino)-2-methylquinolin-3-yl)carbamoyl)benzenesulfonamide]",> 100,2.71 ± 0.43,7.47 ± 0.87,6.55 ± 0.81,–,–,–,–,–
278.7 to 279.9,–,–,"Cc1ccc(S(=O)(=O)NC(=O)Nc2cnc3ccc(Br)cc3c2Nc2ccc(F)c(Cl)c2)cc1 [22c, N-((6-Bromo-4-((3-chloro-4-fluorophenyl)amino)quinolin-3-yl)carbamoyl)-4-methylbenzenesulfonamide]",16.7 ± 0.88,11.3 ± 0.84,> 100,16.8 ± 1.22,–,–,–,–,–
279.2 to 280.1,–,–,"CC(C)(C#N)c1ccc(Nc2c(NC(=O)NS(=O)(=O)c3ccc(Cl)cc3)cnc3ccc(Br)cc23)cc1 [19b, N-((6-Bromo-4-((4-(2-cyanopropan-2-yl)phenyl)amino)quinolin-3-yl)carbamoyl)-4-chlorobenzenesulfonamide]",34.3 ± 1.32,30.2 ± 1.45,> 100,15.1 ± 1.1,–,–,–,–,–
284.1 to 285.4,–,–,"O=C(Nc1cnc2ccc(Br)cc2c1Nc1ccc(Br)cc1)NS(=O)(=O)c1ccc(Cl)cc1 [21b, N-((6-Bromo-4-((4-bromophenyl)amino)quinolin-3-yl)carbamoyl)-4-chlorobenzenesulfonamide]",> 100,11.1 ± 1.04,71.1 ± 1.85,13.8 ± 1.14,–,–,–,–,–
279.2 to 280.6,–,–,"COc1ccc(Nc2c(NC(=O)NS(=O)(=O)c3ccc(C)cc3)cnc3ccc(Br)cc23)cc1 [20c, N-((6-Bromo-4-((4-methoxyphenyl)amino)quinolin-3-yl)carbamoyl)-4-methylbenzenesulfonamide]",> 100,26.8 ± 1.22,23.4 ± 1.12,4.94 ± 0.64,–,–,–,–,–
285.3 to 286.1,–,–,"COc1ccc2nc(C)c(NC(=O)NS(=O)(=O)c3ccc(F)cc3)c(Nc3ccc(F)c(Cl)c3)c2c1 [23d, N-((4-((3-Chloro-4-fluorophenyl)amino)-6-methoxy-2-methylquinolin-3-yl)carbamoyl)-4-fluorobenzenesulfonamide]",57.9 ± 0.99,6.08 ± 1.04,38.1 ± 0.96,57 ± 1.75,–,–,–,–,–
282.2 to 283.1,–,–,"COc1ccc(Nc2c(NC(=O)NS(=O)(=O)c3ccc(Cl)cc3)cnc3ccc(Br)cc23)cc1 [20b, N-((6-Bromo-4-((4-methoxyphenyl)amino)quinolin-3-yl)carbamoyl)-4-chlorobenzenesulfonamide]",> 100,22.6 ± 1.12,30.2 ± 1.23,10.7 ± 0.97,–,–,–,–,–
287.2 to 288.4,–,–,"CC(C)(C)c1ccc(S(=O)(=O)NC(=O)Nc2cnc3ccc(Br)cc3c2Nc2ccc(C(C)(C)C#N)cc2)cc1 [19d, N-((6-Bromo-4-((4-(2-cyanopropan-2-yl)phenyl)amino)quinolin-3-yl)carbamoyl)-4-(tert-butyl)benzenesulfonamide]",68.2 ± 1.32,> 100,30.6 ± 1.45,9.95 ± 0.99,–,–,–,–,–

# From PMC6099940, “Design, Synthesis and Biological Evaluation of Novel Phenylsulfonylurea Derivatives as PI3K/mTOR Dual Inhibitors” (Molecules : A Journal of Synthetic Chemistry and Natural …, 2018)
